PMC10970924 (Life, 2024)

Legend:
HCT-116 [1] = experiment: Colony formation assay; format: cell-based; settings: Homo sapiens, HCT-116, 72 h, read-out: Inhibitory concentration IC50, HCT-116
Description: (§1) Cells were cultured in a 24-well plate with 1 mL of DMEM nutrient medium for 24 h. […] The experiment was conducted in triplicate and in two or three independent repetitions. Only solvent was added to the control wells instead of the test compounds. Incubation with the drugs continued for three days, after which the grown colonies were washed with cold PBS solution and fixed in a fixing buffer (10% acetic acid, 10% methanol in distilled water) for 15 min. The colonies were stained with a 0.4% solution of crystal violet in 20% ethanol for 30 min and then washed 3 times with dH2O and analyzed under a microscope. The colonies were then dissolved in 10% acetic acid for 40 min on a shaker, and the absorbance of the lysate was read at 590 nm. Results were expressed as a percentage relative to the control, and a dose–response curve was plotted to determine the IC50 value.

MCF-7 [2] = experiment: Colony formation assay; format: cell-based; settings: Homo sapiens, MCF7, 72 h, read-out: Inhibitory concentration IC50, MCF-7
Description: as §1

PC-3 [3] = experiment: Colony formation assay; format: cell-based; settings: Homo sapiens, PC-3, 72 h, read-out: Inhibitory concentration IC50, PC-3
Description: as §1

HCT-116 [4] = experiment: MTS cytotoxicity assay; settings: for IC50: Homo sapiens; for IC25, HCT-116 / IC75, HCT-116: test concentration selected based on MTS data; for Times reduced cytotoxicity compared to doxorubicin, HCT-116 / Selectivity index IC50 HSF/IC50 HCT-116: MTS assay; for Selectivity index IC50 HSF/IC50 HCT-116: from the mean IC50 value for HSF cells
Excerpt: (§2) The study utilized human cell lines including PC-3 (human prostate adenocarcinoma), HSF (primary human skin fibroblasts), MDA-MB-231 (estrogen-negative breast adenocarcinoma), MCF-7 (estrogen-positive breast adenocarcinoma), MSC (multipotent stem cells derived from adipose tissue), SF-539 (brain gliosarcoma), SNB-19 (glioblastoma), A-498 (kidney carcinoma), M-14 (human melanoma), NCI-H322-M (primary bronchioalveolar carcinoma), HCT-15 (colon adenocarcinoma), and HCT-116 (colorectal intestinal carcinoma). We also used immortalized C2C12 mouse myoblasts (ATCC—CRL-1772). Cancer cell lines were obtained from the ATCC collection and generously provided by the Fox Chase Cancer Center (Philadelphia, USA). Conditionally normal cells, including skin fibroblasts and multipotent stem cells, were isolated by our group from postoperative materials (skin and subcutaneous fat) obtained from a conditionally healthy donor. Reagents and consumables for cell culture work were purchased from PanEco (Russia).
(§3) The cytotoxicity of the compounds under study was assessed using MTS assay on cell cultures. Cells were seeded into 96-well plates at a concentration of 10,000–20,000 cells/mL. After 24 h, gradient concentrations of the compounds were added to the culture medium and the plates were incubated for 72 h. Subsequently, the culture medium was replaced with MTS reagents (Sigma-Aldrich, Burlington, MA, USA) (MTS:PMS (0.18:0.0092 mg/mL)) and dissolved in phenol-free RPMI 1640 medium. After 2 h of incubation, the resulting water-soluble formazan was measured using the TECAN Infinite M200 Pro microplate reader at wavelengths of 555/750 nm. As a control, equivalent volumes of the solvents in which each compound was dissolved (dH2O/DMSO) were used. To calculate the percentage of viable cells relative to the control, which was considered 100%, dose-response curves were plotted against the logarithm of the compound concentration. The concentration of the compound at which cell growth is inhibited by 50% relative to the control was taken as the inhibitory concentration IC50 and calculated using Origin Pro software 8.0.1. The study was conducted in triplicates and in three independent repetitions.

SNB-19 = experiment: MTS cytotoxicity assay; settings: Homo sapiens, SNB-19, 72 h, read-out: Cytotoxic concentration IC50, SNB-19
Excerpt: as §2, §3

[5] = system: C2C12 (immortalized mouse myoblasts); experiment: MTS cytotoxicity assay; settings: for Inhibition of C2C12 cell proliferation: MTS assay, sufficiently high concentrations
Excerpt: as §2, §3

MDA-MB-231 = experiment: MTS cytotoxicity assay; settings: Homo sapiens, MDA-MB-231, 72 h, read-out: Cytotoxic concentration IC50, MDA-MB-231
Excerpt: as §2, §3

MTS cytotoxicity assay = experiment: MTS cytotoxicity assay
Excerpt: as §2, §3

HCT-15 = experiment: MTS cytotoxicity assay; settings: Homo sapiens, HCT-15, 72 h, read-out: Cytotoxic concentration IC50, HCT-15
Excerpt: as §2, §3

NCI-H322M = experiment: MTS cytotoxicity assay; settings: Homo sapiens, 72 h, read-out: Cytotoxic concentration IC50, NCI-H322M
Excerpt: as §2, §3

SF-539 = experiment: MTS cytotoxicity assay; settings: Homo sapiens, SF-539, 72 h, read-out: Cytotoxic concentration IC50, SF-539
Excerpt: as §2, §3

MCF-7 [6] = experiment: MTS cytotoxicity assay; settings: for IC50: Homo sapiens; for Selectivity index IC50 HSF/IC50 MCF-7: from the mean IC50 value for HSF cells
Excerpt: as §2, §3

M14 = experiment: MTS cytotoxicity assay; settings: Homo sapiens, M14, 72 h, read-out: Cytotoxic concentration IC50, M14
Excerpt: as §2, §3

A-498 = experiment: MTS cytotoxicity assay; settings: Homo sapiens, A498, 72 h, read-out: Cytotoxic concentration IC50, A-498
Excerpt: as §2, §3

PC-3 [7] = experiment: MTS cytotoxicity assay; settings: for IC50: Homo sapiens; for Selectivity index IC50 HSF/IC50 PC-3: MTS assay, from the mean IC50 value for HSF cells
Excerpt: as §2, §3

[8] = system: chicken erythrocyte genomic DNA; experiment: Spectrophotometry of complexation with genomic DNA
Description: Chicken erythrocyte genomic DNA (Reanal, Budapest, Hungary) solution was prepared by dissolving 6 mg of DNA in 3 mL of Tris-EDTA (TE) buffer and allowed to stay for 2 days at a temperature of +2 °C until clear. The concentration of the initial DNA solution was measured using a nanodrop spectrophotometer (DeNovix, Wilmington, DE, USA). A series of DNA concentrations were prepared in TE buffer (60, 30, 20, 15 μg/mL). […] As a control, an equivalent amount of TE buffer in place of the genomic DNA was added to the samples. […] The results were then computed and statistically analyzed using GraphPad Prism software 8.0.1.

[9] = system: genomic DNA from chicken erythrocytes; experiment: Agarose gel electrophoresis of DNA compositions; format: binding; settings: DNA 30 μg/mL; for Interaction with DNA (in words): 11.2 to 180 μM
Description: The mixtures were then incubated for 30 min. To visualize nucleic acids, the intercalating dye SYBR Green was added at a ratio of 1:10 to the final volume, and the mixtures were incubated in the dark for an additional 15 min. […] The electrolyte used was TAE buffer (pH 8.0).

[10] = colony formation assay, incubation three days
[11] = HCT-116, 72 h, read-out: Cytotoxic concentration IC50, HCT-116
[12] = HCT-116, read-out: IC50, HCT-116
[13] = MCF7, 72 h, read-out: Cytotoxic concentration IC50, MCF-7
[14] = test concentration selected based on MTS data
[15] = PC-3, 72 h, read-out: Cytotoxic concentration IC50, PC-3

Row | SMILES | IC50 (HCT-116 [4]; [11]) [nM] | IC50 (HCT-116 [4]; [12]) [nM] | IC25, HCT-116 (HCT-116 [4]) [nM] | IC75, HCT-116 (HCT-116 [4]) [nM] | IC50 (SNB-19) [nM] | Inhibition of C2C12 cell proliferation [5] [%] | IC50 (MDA-MB-231) [nM] | IC50 (HCT-15) [nM] | IC50 (NCI-H322M) [nM] | IC50 (SF-539) [nM] | IC50 (MCF-7 [6]; [13]) [nM] | IC50 (M14) [nM] | IC50 (A-498) [nM] | IC50 (PC-3 [7]; [15]) [nM] | IC50 (PC-3 [7]; PC-3, read-out: IC50, PC-3) [nM] | Changes in the optical spectrum on interaction with genomic DNA (in words) [8] | IC50 (HCT-116 [1]) [nM] | IC50 (MCF-7 [2]) [nM] | IC50 (PC-3 [3]) [nM] | Times reduced cytotoxicity compared to doxorubicin, HCT-116 (HCT-116 [4]) | also measured
1 | COc1cccc2c1C(=O)c1c(O)c3c(c(O)c1C2=O)C[C@@](O)(C(=O)CO)C[C@@H]3O[C@H]1C[C@H](N)[C@H](O)[C@H](C)O1 [DOX, Doxorubicin, reference compound] | 1100 ± 640 | 1000 | 250 | 2500 | 100 ± 40 | ≥ 95 | 730 ± 250 | 460 ± 160 | 2460 ± 1180 | 530 ± 350 | 90 ± 50 | 160 ± 20 | 350 ± 60 | 1050 ± 620 | 1100 | significant changes |  |  |  |  | IC50 (HCT-116 [1]; [10]): 620 ± 140 nM; IC50 (MCF-7 [2]; [10]): 60 ± 3 nM; IC50 (PC-3 [3]; [10]): 1170 ± 480 nM; IC50 at 72 h (MTS cytotoxicity assay; human, HSF primary skin fibroblasts): 1120 ± 660 nM; IC50 at 72 h (MTS cytotoxicity assay; mouse, C2C12 immortalized myoblasts): 45 ± 4 nM; IC50 (MCF-7 [6]; MCF7, read-out: IC50, MCF-7): 50 nM; IC10, MCF-7 (MCF-7 [6]; [14]): 10 nM; IC25, MCF-7 (MCF-7 [6]; [14]): 20 nM; IC70, MCF-7 (MCF-7 [6]; [14]): 200 nM; Concentration sufficient to completely prevent migration of DNA ([9]; agarose gel): 15 µM
2 | COc1cccc2c1C(=O)c1c(O)c3c(c(O)c1C2=O)CC(O)(C(=O)CO)CC3OC1CC(NC(=O)c2cnc(C)c3c2COC(C)(C)O3)C(O)C(C)O1 (stereo not shown) [DOX-1, N-(3-hydroxy-2-methyl-6-((3,5,12-trihydroxy-3-(2-hydroxyacetyl)-10-methoxy-6,11-dioxo-1,2,3,4,6,11-hexahydrotetracen-1-yl)oxy)tetrahydro-2H-pyran-4-yl)-2,2,8-trimethyl-4H-[1,3]dioxino[4,5-c]pyridine-5-carboxamide] | 4630 ± 550 | 4000 | 1700 | 9000 | 5080 ± 3400 | ≥ 95 | 4050 ± 960 | > 100000 | 7200 ± 4760 | 2060 ± 180 | 1880 ± 480 | 4290 ± 1560 | 4460 ± 3190 | 5410 ± 880 | 6100 | no significant changes | 4420 ± 3020 | 870 ± 120 | 3200 ± 310 | 4.2 | Selectivity index IC50 HSF/IC50 HCT-116 (HCT-116 [4]): 1.28 ± 0.18; IC50 at 72 h (MTS cytotoxicity assay; mouse): 230 ± 160 nM; Times less potent than unmodified doxorubicin, MCF-7 (MCF-7 [6]; MTS assay): 20.9; Selectivity index IC50 HSF/IC50 MCF-7 (MCF-7 [6]; MTS assay): 3.32 ± 0.87; Selectivity index IC50 HSF/IC50 PC-3 (PC-3 [7]): 1.12 ± 0.24; IC25, PC-3 (PC-3 [7]; concentration and corresponding IC used in the Comet assay): 3 µM (IC25); Shift of the Absorption Maximum Relative to Control ([8]; DNA concentration 15 µg/mL): 2 nm; Shift of the Absorption Maximum Relative to Control ([8]; DNA concentration 20 µg/mL): 1 nm; Shift of the Absorption Maximum Relative to Control ([8]; DNA concentration 30 µg/mL): 4 nm; Shift of the Absorption Maximum Relative to Control ([8]; DNA concentration 60 µg/mL): 2 nm; Interaction with DNA (in words) [9]: do not interact with DNA
3 | COc1cccc2c1C(=O)c1c(O)c3c(c(O)c1C2=O)CC(O)(C(=O)CO)CC3OC1CC(NC(=O)/C=C/c2cnc(C)c3c2COC(C)(C)O3)C(O)C(C)O1 (stereo not shown) [DOX-2, (E)-N-(3-hydroxy-2-methyl-6-((3,5,12-trihydroxy-3-(2-hydroxyacetyl)-10-methoxy-6,11-dioxo-1,2,3,4,6,11-hexahydrotetracen-1-yl)oxy)tetrahydro-2H-pyran-4-yl)-3-(2,2,8-trimethyl-4H-[1,3]dioxino[4,5-c]pyridin-5-yl)acrylamide] | 1430 ± 290 |  |  |  | 870 ± 100 |  | 1580 ± 1030 | > 200000 | > 200000 | 1740 ± 110 | 770 ± 150 | 2610 ± 240 | 41700 ± 7420 | 1970 ± 310 |  | no significant changes | 910 ± 390 | 1630 ± 40 | 1660 ± 820 | 1.3 | Selectivity index IC50 HSF/IC50 HCT-116 (HCT-116 [4]): >140; inhibition at 200 µM ([5]; Mus musculus, C2C12, read-out: Inhibition of C2C12): ≤ 60%; IC50 at 72 h (MTS cytotoxicity assay; human): > 200000 nM; IC50 at 72 h (MTS cytotoxicity assay; mouse): 2800 ± 1710 nM; Selectivity index for MCF-7, times greater than that of doxorubicin (MCF-7 [6]; MTS assay): 15; Times less potent than unmodified doxorubicin, MCF-7 (MCF-7 [6]; MTS assay): 8.5; Selectivity index IC50 HSF/IC50 MCF-7 (MCF-7 [6]; MTS assay): >260; Selectivity index IC50 HSF/IC50 PC-3 (PC-3 [7]): >100; Shift of the Absorption Maximum Relative to Control ([8]; DNA concentration 15 µg/mL): 0 nm; Shift of the Absorption Maximum Relative to Control ([8]; DNA concentration 20 µg/mL): 0 nm; Shift of the Absorption Maximum Relative to Control ([8]; DNA concentration 30 µg/mL): 0 nm; Shift of the Absorption Maximum Relative to Control ([8]; DNA concentration 60 µg/mL): 1 nm; Interaction with DNA (in words) [9]: do not interact with DNA
